Data: US8124054B2, “Chelating agent conjugated α-MSH peptide derivatives, preparation method thereof and composition for diagnosis and treatment of melanoma comprising the same as an active ingredient” (Korea Atomic Energy Research Institute, priority 2008, dated 2012)

System: B16/F1 murine melanoma
Format: in vivo, C57BL mice
Method: To the nape of the neck of 12 female C57BL mice, each weighing 18˜23 g, B16/F1 murine melanoma cells were injected at a density of 10^6 cells/mL. Two weeks later, the tumor was developed to a size of 0.5˜1 g. The ^177Lu-DOTA-Gly-Cyclic(Dap-Gln-His-dPhe-Arg-Trp-Asp)-Lys-Pro-Val-CONH2 prepared in Example 13 was injected to the mice at a dose of 5 μCi (1.6 μg in 100 μl of saline). 2, 4 and 24 hours later, the mice were sacrificed before organ excision.
For comparison for target selectivity, the mice that were injected with 2 μg of an unlabeled peptide 2 hours after the first injection and then with the radiolabeled peptide were used as a control.
The excised organs were analyzed for radioactivity using a gamma counter (1470 WIZARD Automatic Gamma Counter, PerkinElmer) and the results are plotted in FIG. 7.

- receptor selectivity (concluded from tumor uptake with and without unlabeled peptide): high receptor selectivity
Substance: ^177Lu-labeled DOTA-Gly-cyclic(Dap-Glu-His-dPhe-Arg-Trp-Asp)-Lys-Pro-Val-CONH2 [Example 13]
- tumor uptake in control injected with 2 μg of unlabeled peptide, compared with experimental groups (mouse, in vivo): lower tumor uptake
